Source: patent US20130211059A1, “COMPOSITION SUPPRESSING MATRIX-METALLOPROTEINASE ACTIVITY” (University of Miyazaki, priority 2010, published 2013)

Experiments:
SIRT1 gene = SIRT1 gene expression in cultured macrophages; assay type: cell-based; details: U937 cells pretreated with 2 mg/mL, then PMA; 24 hours after stimulation; FIG. 6 C
Protocol: In this example, the effect of 2-DG was evaluated on the expression of SIRT1 gene in cultured macrophages. […] Gene expression was evaluated at the mRNA level in a manner similar to that used in Example 4.
In the meantime, 2-DG (2 mg/mL) was pretreated to the U937 cell culture solution, and stimulated them with PMA. As control cells, monocytic cells (U937) to which neither phorbol ester nor 2-DG had been administered and monocytic cells (U937) to which only phorbol ester had been administered were used. At 24 hours after stimulation, SIRT1 gene expression levels were compared, and the results are shown in panel C of FIG. 6.

[1] = system: abdominal aorta aneurysm formation; assay: Angiotensin II-induced apolipoprotein E knockout mouse aneurysm model; assay type: in vivo; details: angiotensin II-induced apolipoprotein E knockout mice; 1 g/kg body weight/day intraperitoneally for 28 days; FIG. 4
Protocol: Each angiotensin II-induced apolipoprotein E knockout mouse was produced by subcutaneous administration of a pressor peptide, angiotensin II (1000 ng/kg/min), to a 12-week-old apolipoprotein E-deficient mouse via osmotic pump for 28 days. After osmotic pump implantation, 2-DG was intraperitoneally administered at 1 g/kg body weight/day for 28 days (the number of mice (n)=14). After 28 days of administration, the abdominal aorta was removed and then the aortic diameter was measured. As negative control, the abdominal aorta was similarly removed from mice (the number of mice (n)=14) produced by administration of saline instead of 2-DG, and then the aortic diameter was measured.

MMP-9 [2] = assay: PMA-induced MMP-9 activity in cultured macrophages (U937), gelatin zymogram; assay type: cell-based; details: U937 cells pretreated with substance, then stimulated with 10 nmol/L PMA, FIG. 2 A-C
Protocol: (§1) The human AAA wall was homogenized, the obtained samples were evaluated for GLUT-3 protein expression by Western blot, and MMP-9 activity was determined by zymography. Western blot analysis was conducted by subjecting 10 μg of the extracted protein (quantified) to SDS-polyacrylamide gel electrophoresis for separation, subsequently transferring and immobilizing the resultant onto a membrane to prepare a blot, carrying out a reaction of the blot with an anti-GLUT-3 antibody for 1 hour and then with a secondary antibody, and then detecting signals. Meanwhile, zymogram analysis was conducted by subjecting 5 μg of the extracted protein (quantified) to electrophoresis on a zymogram gel plate to separate the protein. The method employed thereafter was carried out according to the instructions of a kit (Invitrogen). After 24 hours of a reaction at 37° C., zymogram gel was stained overnight with a Coomassie blue solution and then destained, and then enzyme activity was detected.
(§2) In this example, 2-DG, cytochalasin, or phloretin was administered to evaluate the suppression of MMP-9 activity in cultured macrophages or the human AAA wall, using a zymogram used in Example 1.
In the meantime, U937 cells were pretreated with a glucose transporter inhibitor (cytochalasin or phloretin), and then stimulated with 10 nmol/L PMA. In addition, U937 cells were pretreated with 2-DG and then stimulated with 10 nmol/L PMA. Furthermore, 2-DG was administered to the ex vivo culture of human AAA wall.
In panels A to D, “MMP-9 (L)” denotes latent MMP-9 activity and “MMP-9 (A)” denotes active MMP-9 activity. In addition, in panel D, “MMP-2 (L)” denotes latent MMP-2 activity and “MMP-2 (A)” denotes active MMP-2 activity. Moreover, in panel D, “control” denotes an aqueous solvent not containing 2-DG.

MMP-9 [3] = assay: MMP-9 activity in ex vivo culture of human AAA wall, zymogram; assay type: cell-based; details: FIG. 2 D
Protocol: as §1, §2
In the meantime, U937 cells were pretreated with a glucose transporter inhibitor (cytochalasin or phloretin), and then stimulated with 10 nmol/L PMA. […]

[4] = system: abdominal aorta aneurysm formation; assay: Calcium chloride application-induced mouse aneurysm model; assay type: in vivo
Protocol: The mouse aneurysm model was induced by peri-aortic application of calcium chloride to 8-week-old male C57BL/6J mice.
2-DG was intraperitoneally administered at 100 mg/kg body weight or 1 g/kg body weight/day to the mouse aneurysm model for 28 days. After 28 days, the abdominal aorta was removed and then the diameter thereof was measured. An abdominal aorta was removed similarly from mice to which saline had been administered instead of 2-DG after application of calcium chloride as a negative control, and a mouse that had been treated in the same manner except for application of sodium chloride instead of calcium chloride as a control, and then the diameter of each thereof was measured.
Panel B is a graph showing the diameter (mm) of the abdominal aorta removed from each group.

[5] = system: MMP-1, CCL-2, TNF-α, MMP-9, CCL-8 and IL-6 gene expression; assay: Expression of atherosclerosis/aneurysm-related genes in cultured macrophages by DNA microarray; assay type: cell-based; details: U937 cells pretreated, then 10 nmol/L PMA, 24 hours after stimulation, FIG. 5
Protocol: In this example, the effects of 2-DG on gene expressions associated with development of atherosclerosis and/or aneurysm in cultured macrophages were evaluated by DNA microarray (Agilent). The evaluated genes associated with atherosclerosis induction- and/or aneurysm formation were MMP-1 and MMP-9, chemokines (CCL-2 and CCL-8) and inflammatory cytokines (TNF-α and IL-6) (Libby P., Inflammation in atherosclerosis, Nature 2002, 420 (6917): 868-874 and Tung W S, Lee J K, Thompson R W., Simultaneous analysis of 1176 gene products in normal human aorta and abdominal aortic aneurysms using a membrane-based complementary DNA expression array. J Vasc Surg. 2001, 34(1): 143-150). Monocytic cells (U937) were stimulated with 10 nmol/L phorbol ester (PMA) for differentiation to macrophages. Some U937 cells were pretreated with 2-DG and then stimulated with 10 nmol/L PMA. As control cells, monocytic cells (U937) to which neither phorbol ester nor 2-DG had been administered were used. At 24 hours after stimulation, cells were collected, RNA was extracted, cDNA was constructed from RNA, and then the resultant was arrayed. The results of arraying were analyzed by GeneSpring GX10 software, so that the expression levels of the atherosclerosis induction- and/or aneurysm-related genes of each cell sample were evaluated. […]

Molecule | SIRT1 gene expression level (SIRT1 gene) | aneurysm formation (aortic diameter) [1] | PMA-induced MMP-9 activity (MMP-9 [2]) | MMP-9 activity in ex vivo culture of the human AAA wall (MMP-9 [3]) | expansion of aortic diameter following application of calcium chloride ([4]; C57BL/6J mice, 100 mg/kg or 1 g/kg body weight/day intraperitoneally for 28 days, FIG. 3) | vascular wall structure (tunica media layers, cytoprotective effect) ([4]; calcium chloride mouse aneurysm model, mice treated with 2-DG) | expression levels of atherosclerosis induction- and/or aneurysm-related genes (MMP-1, CCL-2, TNF-α, MMP-9, CCL-8, IL-6), mRNA [5]
O=CC[C@@H](O)[C@H](O)[C@H](O)CO [2-DG, 2-deoxyglucose] | significantly increased | suppressed | decreased | suppressed | suppressed | maintained the vascular wall structure | decreased
O=C(CCc1ccc(O)cc1)c1c(O)cc(O)cc1O [phloretin] | – | – | decreased | – | – | – | –
cytochalasin | – | – | decreased | – | – | – | –
